In patent publication US8377935B2, “Substituted aminopropenyl piperidine or morpholine derivatives as novel inhibitors of histone deacetylase” (Janssen Pharmaceutica N.V., priority 2005, dated 2013):

Legend:
p21 promoter = experiment: p21 induction capacity, in vivo method (tumour fluorescence in nude mice); design: key: inactive (no fluorescence measurable); weaker, identical or better than R306465; weaker, identical or better than R306465; weaker, identical or better than R306465; settings: oral administration, daily during 6 days, 20-40 mpk
Method: A first method tests the capacity of compounds to induce p21 as the consequence of HDAC inhibition at the cellular level. […] The reporter gene is a fluorescent protein and the expression of the reporter gene is measured as the amount of fluorescent light emitted (see example C.6.a.). The second method is an in vivo method wherein mice are used for screening the pharmaceutical activity of a compound. The above described stably transformed tumour cells can be administered to mice in an amount sufficient to effect production of a tumour. After the tumour cells had sufficient time to form a tumour, a potentially active compound can be administered to the animals and the effect of said compound On the tumour cells is evaluated by measuring the expression of the reporter gene. […]
A selected clone was injected subcutaneous (10^7 cells/200 μl) into the flank of nude mice and a calliper measurable tumour was obtained after 12 days. […] Tumours were evaluated for fluorescence by the in-house developed Automated Whole Body Imaging System (Fluorescent stereomicroscope type Olympus® SZX12 equipped with a GFP filter and coupled to a CCD camera type IAI® CV-M90 controlled by a software package based on the IMAQ Vision Software from National Instruments®). […]

[1] = system: A2780 ovarian carcinoma cells; experiment: Determination of antiproliferative activity on A2780 cells (MTT); type: cell-based; settings: Homo sapiens, 96 h, four days of incubation, read-out: Cellular activity pIC50 (converted)
Method: Cellular activity of the compounds of formula (I) was determined on A2780 tumour cells using a colorimetric assay for cell toxicity or survival (Mosmann Tim, Journal of Immunological Methods 65:55-63, 1983)(see example C.2).
All compounds tested were dissolved in DMSO and further dilutions were made in culture medium. Final DMSO concentrations never exceeded 0.1% (v/v) in cell proliferation assays. Controls contained A2780 cells and DMSO without compound and blanks contained DMSO but no cells. MTT was dissolved at 5 mg/ml in PBS. A glycine buffer comprised of 0.1 M glycine and 0.1 M NaCl buffered to pH 10.5 with NaOH (1 N) was prepared (all reagents were from Merck).
The human A2780 ovarian carcinoma cells (a kind gift from Dr. T. C. Hamilton [Fox Chase Cancer Centre, Pennsylvania, USA]) were cultured in RPMI 1640 medium supplemented with 2 mM L-glutamine, 50 μg/ml gentamicin and 10% fetal calf serum. Cells were routinely kept as monolayer cultures at 37° C. in a humidified 5% CO2 atmosphere. Cells were passaged once a week using a trypsin/EDTA solution at a split ratio of 1:40. All media and supplements were obtained from Life Technologies. Cells were free of mycoplasma contamination as determined using the Gen-Probe Mycoplasma Tissue Culture kit (supplier: BioMerieux).
Cells were seeded in NUNC™ 96-well culture plates (Supplier: Life Technologies) and allowed to adhere to the plastic overnight. Densities used for plating were 1500 cells per well in a total volume of 200 μl medium. After cell adhesion to the plates, medium was changed and drugs and/or solvents were added to a final volume of 200 μl. Following four days of incubation, medium was replaced by 200 μl fresh medium and cell density and viability was assessed using an MTT-based assay. To each well, 25 μl MTT solution was added and the cells were further incubated for 2 hours at 37° C. The medium was then carefully aspirated and the blue MTT-formazan product was solubilized by addition of 25 μl glycine buffer followed by 100 μl of DMSO. […] Within an experiment, the results for each experimental condition are the mean of 3 replicate wells. For initial screening purposes, compounds were tested at a single fixed concentration of 10^−6 M. For active compounds, the experiments were repeated to establish full concentration-response curves. For each experiment, controls (containing no drug) and a blank incubation (containing no cells or drugs) were run in parallel. The blank value was subtracted from all control and sample values. For each sample, the mean value for cell growth (in absorbance units) was expressed as a percentage of the mean value for cell growth of the control. […] Herein the effects of test compounds are expressed as pIC50 (the negative log value of the IC50-value)(see Table F-3).

## O=C(NO)c1cnc(N2CCC(CNC(/C=C/c3ccccc3)CO)CC2)nc1 (centres unmarked) [Compound 1]
p21 promoter
  tumour fluorescence (p21 induction) ranked against R306465: better
[1]
  IC50: 25.1 nM
